Assay results as given in US5945404A, “21-Substituted steroid compound” (priority 1993, dated 1999).
“And” between values parts separate entries of the source, which are not always exact repeats. Identical values can stand only once. Like-named read-outs stand apart in the source and are kept apart here.

Tested on: croton oil-induced granuloma
Test: Croton Oil-induced Granuloma (granuloma pouch)
Type: in vivo, male Sprague-Dawley rats
Conditions: for inhibition in vivo at 0.01 mg / inhibition in vivo at 0.1 mg / inhibition in vivo at 1 mg: Rattus norvegicus, 168 h
Protocol: Groups of 5 male Sprague-Dawley rats each weighing 160-180 g were used. Under ether anesthesia, the dorsum of animals was closely clipped, and air sac was formed by injecting air (20 ml) subcutaneously. Next day cotton seed oil containing 1% croton oil was injected into the air sac. Drugs to be tested were suspended in the cotton seed oil containing 1% croton oil, and administered. After 7 days, the blood was taken from the animal under ether anesthesia. Then, the granuloma pouch fluid (exudate) was collected, and the fluid volume was measured. The pouch wall formed around granuloma and thymus were also excised and weighed.

[1] = 0.01 mg/rat, 7 days, read-out: Effects on granuloma weight, per cent of inhibition over the control
[2] = 0.01 mg/rat, 7 days, read-out: Effects on pouch fluid (exudate) volume, per cent of inhibition over the control
[3] = 0.1 mg/rat, 7 days, read-out: Effects on granuloma weight, per cent of inhibition over the control
[4] = 0.1 mg/rat, 7 days, read-out: Effects on pouch fluid (exudate) volume, per cent of inhibition over the control
[5] = 1.0 mg/rat, 7 days, read-out: Effects on granuloma weight, per cent of inhibition over the control
[6] = 1.0 mg/rat, 7 days, read-out: Effects on pouch fluid (exudate) volume, per cent of inhibition over the control

| Molecule | inhibition in vivo at 0.01 mg [1] | inhibition in vivo at 0.01 mg [2] | inhibition in vivo at 0.1 mg [3] | inhibition in vivo at 0.1 mg [4] | inhibition in vivo at 1 mg [5] | inhibition in vivo at 1 mg [6] | Effects on thymus weight, per cent of inhibition over the control thymus weight (1.0 mg/rat, 7 days) | Effects on granuloma weight, per cent of inhibition over the control (0.01 mg/rat, 7 days) | Effects on granuloma weight, per cent of inhibition over the control (0.1 mg/rat, 7 days) | Effects on pouch fluid (exudate) volume, per cent of inhibition over the control (rat, in vivo) | Effects on granuloma weight, per cent of inhibition over the control (1.0 mg/rat, 7 days) |
| --- | --- | --- | --- | --- | --- | --- | --- | --- | --- | --- | --- |
| C[C@@H]1C[C@H]2[C@@H]3C[C@H](F)C4=CC(=O)C=C[C@]4(C)[C@@]3(F)[C@@H](O)C[C@]2(C)[C@H]1C(=O)CO[C@@H]1O[C@H](COC(=O)c2ccccc2)[C@@H](OC(=O)c2ccccc2)[C@H](OC(=O)c2ccccc2)[C@H]1OC(=O)c1ccccc1 [Compound 110β, glucosyldiflucortolone (benzoyl derivative)] | 16.8 ± 7.1% | 34.4 ± 8.9% | 58.7 ± 1.4% | 79.6 ± 8.5% | 70.3 ± 1.9% | 97.2 ± 0.5% |  |  |  |  |  |
| CCCCC(=O)O[C@]1(C(=O)CO)[C@@H](C)C[C@H]2[C@@H]3CCC4=CC(=O)C=C[C@]4(C)[C@@]3(F)[C@@H](O)C[C@@]21C [Betamethasone valerate, reference compound] |  |  |  |  | 18.7 ± 11.7% | 23.9 ± 12.1% | 37.0 ± 3.0 per cent and 58.9 ± 3.3 per cent |  |  |  |  |
| Cc1ccc(C(=O)OC[C@H]2O[C@@H](OCC(=O)[C@@]3(O)[C@@H](C)C[C@H]4[C@@H]5CCC6=CC(=O)C=C[C@]6(C)[C@@]5(F)[C@@H](O)C[C@@]43C)[C@H](OC(=O)c3ccc(C)cc3)[C@@H](OC(=O)c3ccc(C)cc3)[C@@H]2OC(=O)c2ccc(C)cc2)cc1 [Compound 91β, Glucosylbetamethasone (per Tol)] | 17.1 ± 6.7% | 25.3 ± 5.3% | 6.9 ± 5.1% | 18.4 ± 6.1% | 4.3 ± 8.2% | 18.9 ± 8.8% |  |  |  |  |  |
| C[C@@H]1C[C@H]2[C@@H]3C[C@H](F)C4=CC(=O)C=C[C@]4(C)[C@@]3(F)[C@@H](O)C[C@]2(C)[C@H]1C(=O)CO[C@@H]1O[C@H](COC(=O)c2ccc(Cl)cc2)[C@@H](OC(=O)c2ccc(Cl)cc2)[C@H](OC(=O)c2ccc(Cl)cc2)[C@H]1OC(=O)c1ccc(Cl)cc1 [Compound 112β, glucosyldiflucortolone (p-chlorobenzoyl derivative)] | 15.9 ± 6.9% | 36.1 ± 9.2% | 27.1 ± 2.4% | 43.7 ± 2.5% | 61.3 ± 2.2% | 93.1 ± 1.6% |  |  |  |  |  |
| CCC(=O)O[C@]1(C(=O)COC(C)=O)[C@@H](C)C[C@H]2[C@@H]3CCC4=CC(=O)C=C[C@]4(C)[C@@]3(F)[C@@H](O)C[C@@]21C [Betamethasone acetate propionate, reference compound] |  |  |  |  |  |  |  | 21.2 ± 6.4 per cent | 26.0 ± 6.9 per cent | 27.6 ± 8.1 and 43.6 ± 4.7 |  |
| C[C@H]1C[C@H]2[C@@H]3CCC4=CC(=O)C=C[C@]4(C)[C@@]3(F)[C@@H](O)C[C@]2(C)[C@@]1(O)C(=O)CO[C@@H]1O[C@H](COC(=O)c2ccccc2)[C@@H](OC(=O)c2ccccc2)[C@H](OC(=O)c2ccccc2)[C@H]1OC(=O)c1ccccc1 [Compound 100β, glucosylbetamethasone (benzoyl derivative)] | 11 ± 6.5% | 20.8 ± 11.7% | 4.1 ± 11.3% | 17.5 ± 5.9% | 60.5 ± 5.8% | 69.4 ± 6.7% |  |  |  |  |  |
| CC(=O)OC[C@H]1O[C@@H](OCC(=O)[C@H]2[C@H](C)C[C@H]3[C@@H]4C[C@H](F)C5=CC(=O)C=C[C@]5(C)[C@@]4(F)[C@@H](O)C[C@@]32C)[C@H](OC(C)=O)[C@@H](OC(C)=O)[C@@H]1OC(C)=O [Compound 113β, glucosyldiflucortolone (acetyl derivative)] | 47.4 ± 11% | 90.5 ± 6.6% | 60.8 ± 9.3% | 97.1 ± 0.5% | 90.5 ± 0.6% | 97.5 ± 0.7% |  |  |  |  |  |
| Diflurasone acetate [reference compound] |  |  |  |  |  |  |  | -13.1 ± 13.3 per cent | 4.0 ± 10.5 per cent |  | 11.7 ± 12.4 per cent |
